According to BigSolDB 2.1:

COc1cc2nc(Cl)nc(N)c2cc1OC
solubility (mole fraction) (in 1,4-dioxane, 288.15 K): 0.000108
solubility (mole fraction) (in 1,4-dioxane, 293.15 K): 0.000129
solubility (mole fraction) (in 1,4-dioxane, 298.15 K): 0.000154
solubility (mole fraction) (in 1,4-dioxane, 303.15 K): 0.000183
solubility (mole fraction) (in 1,4-dioxane, 308.15 K): 0.000216
solubility (mole fraction) (in 1,4-dioxane, 313.15 K): 0.000253
solubility (mole fraction) (in DMF, 273.15 K): 0.00286
solubility (mole fraction) (in DMF, 278.15 K): 0.00336
solubility (mole fraction) (in DMF, 283.15 K): 0.00405
solubility (mole fraction) (in DMF, 288.15 K): 0.00495
solubility (mole fraction) (in DMF, 293.15 K): 0.00586
solubility (mole fraction) (in DMF, 298.15 K): 0.00687
solubility (mole fraction) (in DMF, 303.15 K): 0.00817
solubility (mole fraction) (in DMF, 308.15 K): 0.00979
solubility (mole fraction) (in DMF, 313.15 K): 0.0116
solubility (mole fraction) (in NMP, 273.15 K): 0.00572
solubility (mole fraction) (in NMP, 278.15 K): 0.00648
solubility (mole fraction) (in NMP, 283.15 K): 0.00746
solubility (mole fraction) (in NMP, 288.15 K): 0.00838
solubility (mole fraction) (in NMP, 293.15 K): 0.00932
solubility (mole fraction) (in NMP, 298.15 K): 0.0103
solubility (mole fraction) (in NMP, 303.15 K): 0.0113
solubility (mole fraction) (in NMP, 308.15 K): 0.0124
solubility (mole fraction) (in NMP, 313.15 K): 0.0137
solubility (mole fraction) (in cyclohexanone, 273.15 K): 0.00109
solubility (mole fraction) (in cyclohexanone, 278.15 K): 0.0013
solubility (mole fraction) (in cyclohexanone, 283.15 K): 0.00151
solubility (mole fraction) (in cyclohexanone, 288.15 K): 0.00177
solubility (mole fraction) (in cyclohexanone, 293.15 K): 0.00206
solubility (mole fraction) (in cyclohexanone, 298.15 K): 0.00241
solubility (mole fraction) (in cyclohexanone, 303.15 K): 0.0028
solubility (mole fraction) (in cyclohexanone, 308.15 K): 0.00324
solubility (mole fraction) (in cyclohexanone, 313.15 K): 0.00385
solubility (mole fraction) (in ethanol, 273.15 K): 0.000169
solubility (mole fraction) (in ethanol, 278.15 K): 0.000206
solubility (mole fraction) (in ethanol, 283.15 K): 0.000246
solubility (mole fraction) (in ethanol, 288.15 K): 0.0003
solubility (mole fraction) (in ethanol, 293.15 K): 0.000359
solubility (mole fraction) (in ethanol, 298.15 K): 0.000423
solubility (mole fraction) (in ethanol, 303.15 K): 0.000497
solubility (mole fraction) (in ethanol, 308.15 K): 0.000585
solubility (mole fraction) (in ethanol, 313.15 K): 0.000693
solubility (mole fraction) (in ethyl acetate, 273.15 K): 0.000278
solubility (mole fraction) (in ethyl acetate, 278.15 K): 0.000322
solubility (mole fraction) (in ethyl acetate, 283.15 K): 0.000375
solubility (mole fraction) (in ethyl acetate, 288.15 K): 0.000443
solubility (mole fraction) (in ethyl acetate, 293.15 K): 0.000522
solubility (mole fraction) (in ethyl acetate, 298.15 K): 0.000618
solubility (mole fraction) (in ethyl acetate, 303.15 K): 0.000725
solubility (mole fraction) (in ethyl acetate, 308.15 K): 0.000853
solubility (mole fraction) (in ethyl acetate, 313.15 K): 0.00101
solubility (mole fraction) (in isobutanol, 273.15 K): 0.000232
solubility (mole fraction) (in isobutanol, 278.15 K): 0.000272
solubility (mole fraction) (in isobutanol, 283.15 K): 0.000325
solubility (mole fraction) (in isobutanol, 288.15 K): 0.00038
solubility (mole fraction) (in isobutanol, 293.15 K): 0.000443
solubility (mole fraction) (in isobutanol, 298.15 K): 0.000514
solubility (mole fraction) (in isobutanol, 303.15 K): 0.000601
solubility (mole fraction) (in isobutanol, 308.15 K): 0.000706
solubility (mole fraction) (in isobutanol, 313.15 K): 0.000841
solubility (mole fraction) (in isopropanol, 273.15 K): 0.000142
solubility (mole fraction) (in isopropanol, 278.15 K): 0.000173
solubility (mole fraction) (in isopropanol, 283.15 K): 0.000209
solubility (mole fraction) (in isopropanol, 288.15 K): 0.000257
solubility (mole fraction) (in isopropanol, 293.15 K): 0.000306
solubility (mole fraction) (in isopropanol, 298.15 K): 0.000362
solubility (mole fraction) (in isopropanol, 303.15 K): 0.000434
solubility (mole fraction) (in isopropanol, 308.15 K): 0.000518
solubility (mole fraction) (in isopropanol, 313.15 K): 0.000622
solubility (mole fraction) (in methanol, 273.15 K): 0.000109
solubility (mole fraction) (in methanol, 278.15 K): 0.000139
solubility (mole fraction) (in methanol, 283.15 K): 0.000171
solubility (mole fraction) (in methanol, 288.15 K): 0.00021
solubility (mole fraction) (in methanol, 293.15 K): 0.000255
solubility (mole fraction) (in methanol, 298.15 K): 0.00031
solubility (mole fraction) (in methanol, 303.15 K): 0.000378
solubility (mole fraction) (in methanol, 308.15 K): 0.000458
solubility (mole fraction) (in methanol, 313.15 K): 0.000544
solubility (mole fraction) (in n-butanol, 273.15 K): 0.000252
solubility (mole fraction) (in n-butanol, 278.15 K): 0.000294
solubility (mole fraction) (in n-butanol, 283.15 K): 0.000345
solubility (mole fraction) (in n-butanol, 288.15 K): 0.000402
solubility (mole fraction) (in n-butanol, 293.15 K): 0.000467
solubility (mole fraction) (in n-butanol, 298.15 K): 0.000548
solubility (mole fraction) (in n-butanol, 303.15 K): 0.000648
solubility (mole fraction) (in n-butanol, 308.15 K): 0.000763
solubility (mole fraction) (in n-butanol, 313.15 K): 0.000929
solubility (mole fraction) (in n-propanol, 273.15 K): 0.000209
solubility (mole fraction) (in n-propanol, 278.15 K): 0.000245
solubility (mole fraction) (in n-propanol, 283.15 K): 0.00029
solubility (mole fraction) (in n-propanol, 288.15 K): 0.000343
solubility (mole fraction) (in n-propanol, 293.15 K): 0.000403
solubility (mole fraction) (in n-propanol, 298.15 K): 0.000471
solubility (mole fraction) (in n-propanol, 303.15 K): 0.000552
solubility (mole fraction) (in n-propanol, 308.15 K): 0.000657
solubility (mole fraction) (in n-propanol, 313.15 K): 0.000769
solubility (mole fraction) (in toluene, 273.15 K): 2e-06
solubility (mole fraction) (in toluene, 278.15 K): 2.7e-06
solubility (mole fraction) (in toluene, 283.15 K): 3.7e-06
solubility (mole fraction) (in toluene, 288.15 K): 5.1e-06
solubility (mole fraction) (in toluene, 293.15 K): 6.9e-06
solubility (mole fraction) (in toluene, 298.15 K): 9.2e-06
solubility (mole fraction) (in toluene, 303.15 K): 1.26e-05
solubility (mole fraction) (in toluene, 308.15 K): 1.66e-05
solubility (mole fraction) (in toluene, 313.15 K): 2.17e-05
